Data reported in PubChem BioAssay (NCI).
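Exposure lasted 48 hours, with cells grown in 96-well plates and compounds tested at five concentrations. TGI marks complete inhibition of growth.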

What was measured:
Test in all cases: NCI-60 cell line screen, 48 h
HCC-2998 colon = system: HCC-2998 colon
T-47D breast = system: T-47D breast
KM12 colon = system: KM12 colon
SW-620 colon = system: SW-620 colon
MOLT-4 leukemia = system: MOLT-4 leukemia
RPMI-8226 leukemia = system: RPMI-8226 leukemia
OVCAR-3 ovarian = system: OVCAR-3 ovarian
CAKI-1 renal = system: CAKI-1 renal
LOX IMVI melanoma = system: LOX IMVI melanoma
SF-295 CNS = system: SF-295 CNS
NCI/ADR-RES ovarian = system: NCI/ADR-RES ovarian
NCI-H460 lung = system: NCI-H460 lung
ACHN renal = system: ACHN renal
SR leukemia = system: SR leukemia
U251 CNS = system: U251 CNS
DU-145 prostate = system: DU-145 prostate
SN12C renal = system: SN12C renal
UACC-257 melanoma = system: UACC-257 melanoma
HOP-92 NSCLC = system: HOP-92 NSCLC
RXF 393 renal = system: RXF 393 renal

| SMILES | TGI (HCC-2998 colon) [µM] | TGI (T-47D breast) [µM] | TGI (KM12 colon) [µM] | TGI (SW-620 colon) [µM] | TGI (MOLT-4 leukemia) [µM] | TGI (RPMI-8226 leukemia) [µM] | TGI (OVCAR-3 ovarian) [µM] | TGI (CAKI-1 renal) [µM] | TGI (LOX IMVI melanoma) [µM] | TGI (SF-295 CNS) [µM] | TGI (NCI/ADR-RES ovarian) [µM] | TGI (NCI-H460 lung) [µM] | TGI (ACHN renal) [µM] | TGI (SR leukemia) [µM] | TGI (U251 CNS) [µM] | TGI (DU-145 prostate) [µM] | TGI (SN12C renal) [µM] | TGI (UACC-257 melanoma) [µM] | TGI (HOP-92 NSCLC) [µM] | TGI (RXF 393 renal) [µM] |
| --- | --- | --- | --- | --- | --- | --- | --- | --- | --- | --- | --- | --- | --- | --- | --- | --- | --- | --- | --- | --- |
| COc1cc(C2SCC(=O)N2c2ccc(Oc3ccc(Cl)cc3)c(Cl)c2)cc(OC)c1OC (stereo not given) | > 100 | 27.5 | 46 | 58.3 | > 100 | > 100 | 31.1 | 33.6 | 36.8 | 34.6 | 30.4 | > 100 | > 100 | > 100 | > 100 | 27.3 | 56.2 | 33.3 |  |  |
| COc1ccccc1Nc1nc(NNC(=O)Cc2ccccc2)nc(NNC(=O)c2ccncc2)n1 | > 10 | > 10 | > 10 | > 10 | > 10 | > 10 |  | > 10 | > 10 |  | > 10 | > 10 |  | > 10 | > 10 | > 10 | > 10 | > 10 | > 10 |  |
| Cc1c(-c2ccccc2)c(C#N)c2nnc(C(N)=O)c(N)n12 | > 100 | > 100 | > 100 | > 100 | > 100 | > 100 | > 100 | > 100 | > 100 | > 100 | > 100 | > 100 | > 100 | > 100 | > 100 | > 100 | > 100 | > 100 |  | > 100 |
| Oc1ccc(CCc2cc(O)cc(O)c2)cc1 |  | > 100 | > 100 | > 100 | > 100 | > 100 | > 100 | > 100 |  | > 100 | > 100 | > 100 | > 100 | > 100 | > 100 | > 100 | > 100 | > 100 | > 100 | > 100 |
| O=c1[nH]c(N/N=C\C(O)C(O)C(O)CO)nc2ccccc12 (stereo not given) |  | > 100 | > 100 | > 100 | > 100 | > 100 | > 100 | > 100 | > 100 | > 100 | > 100 | > 100 | > 100 | > 100 | > 100 | > 100 | > 100 | > 100 | > 100 |  |
| Cn1cnc2c(sc3nc4ccccc4n32)c1=N | > 100 | > 100 |  | > 100 | > 100 | > 100 | > 100 | > 100 | > 100 | > 100 | > 100 |  | > 100 |  | > 100 | > 100 |  | > 100 | > 100 | > 100 |
| NNc1nncn1N |  | > 100 | > 100 | > 100 | > 100 | > 100 | > 100 | > 100 | > 100 | > 100 | > 100 | > 100 | > 100 | > 100 | > 100 | > 67.3 | > 100 | > 100 | > 100 | > 100 |
| CN(C)CCCOCCn1c2c(c3ccccc31)CCCC2 | 28.4 | 49.7 | 43.1 | 37.5 | 30.6 | 33.9 | 53.1 | 31.5 | 31.5 | 40.1 | 35.2 | 28.9 | 29 | 41 | 41.8 | 67.7 | 32.5 | 33.3 | 46 |  |
| COc1c(C)c(OC)c2c(c1O)[C@@H]1[C@@H]3Cc4c(OC)c(C)c(OC)c(O)c4[C@H](CNC(=O)c4cnc5ccccc5n4)N3[C@@H](C#N)[C@H](C2)N1C |  | 0.00676 | 0.00382 | > 0.0313 | 0.00262 |  | 0.0168 | > 0.0391 | > 0.0273 | > 0.0294 | > 0.1 | > 0.1 | > 0.0414 | 0.0014 | > 0.0361 | > 0.0206 | > 0.0718 | 0.00756 | 0.0129 | > 0.0368 |
| CCOC(=O)C(CS)NC(=O)CCCCCCCC(=O)NC(CS)C(=O)OCC (stereo not given) | > 100 | > 100 | > 100 | > 100 | > 100 | > 100 | > 100 | > 100 | > 100 | > 100 | > 100 | > 100 | > 100 | > 100 | > 100 | > 100 | > 100 | > 100 | > 100 |  |
